According to the supplement of paper PMC10307832:

What was measured:
Experiment in all cases: relative viability (nuclei count vs DMSO), 5 days (fraction); higher = more cells survive
[1] = compound: O=C(O)c1ccc2c(c1)nc(Nc1cccc(Cl)c1)c1ccncc12 [Silmitasertib] + CC(=O)Nc1cccc(-n2c(=O)n(C3CC3)c(=O)c3c(Nc4ccc(I)cc4F)n(C)c(=O)c(C)c32)c1 [Trametinib] (partner 0.02 µM)
In short: (§1)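 Lung cancer cell lines, seeded in 1536-well plates, were treated the following day by pin tool with a single drug or with five library-drug doses (not always all listed) in √10 steps on top of a fixed anchor-drug dose. Cells were fixed and nuclei stained in one step after 5 days, and nuclei were counted. Relative viability is the nuclei count for treated wells divided by that for vehicle wells, reported as medians of duplicate plates.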

[2] = compound: O=C(O)c1ccc2c(c1)nc(Nc1cccc(Cl)c1)c1ccncc12 [Silmitasertib] + Cc1nc(Nc2ncc(C(=O)Nc3c(C)cccc3Cl)s2)cc(N2CCN(CCO)CC2)n1 [Dasatinib] (partner 0.075 µM)
In short: as §1

[3] = compound: O=C(O)c1ccc2c(c1)nc(Nc1cccc(Cl)c1)c1ccncc12 [Silmitasertib] + CS(=O)(=O)CCNCc1ccc(-c2ccc3ncnc(Nc4ccc(OCc5cccc(F)c5)c(Cl)c4)c3c2)o1 [Lapatinib] (partner 2 µM)
In short: as §1

[4] = compound: O=C(O)c1ccc2c(c1)nc(Nc1cccc(Cl)c1)c1ccncc12 [Silmitasertib] + COc1cc2c(Oc3ccc(NC(=O)C4(C(=O)Nc5ccc(F)cc5)CC4)cc3F)ccnc2cc1OCCCN1CCOCC1 [Foretinib] (partner 0.25 µM)
In short: as §1

[5] = compound: O=C(O)c1ccc2c(c1)nc(Nc1cccc(Cl)c1)c1ccncc12 [Silmitasertib] + CC1(C)CCC(c2ccc(Cl)cc2)=C(CN2CCN(c3ccc(C(=O)NS(=O)(=O)c4ccc(N[C@H](CCN5CCOCC5)CSc5ccccc5)c(S(=O)(=O)C(F)(F)F)c4)cc3)CC2)C1 [Navitoclax] (partner 0.5 µM)
In short: as §1

Cell Line	relative viability ([1]; first compound 0.04 µM)	relative viability ([1]; first compound 0.4 µM)	relative viability ([1]; first compound 1.265 µM)	relative viability ([1]; first compound 4 µM)	relative viability ([2]; first compound 0.04 µM)	relative viability ([2]; first compound 0.4 µM)	relative viability ([2]; first compound 1.265 µM)	relative viability ([2]; first compound 4 µM)	relative viability ([3]; first compound 0.04 µM)	relative viability ([3]; first compound 0.4 µM)	relative viability ([3]; first compound 1.265 µM)	relative viability ([3]; first compound 4 µM)	relative viability ([4]; first compound 0.04 µM)	relative viability ([4]; first compound 0.4 µM)	relative viability ([4]; first compound 1.265 µM)	relative viability ([4]; first compound 4 µM)	relative viability ([5]; first compound 0.04 µM)	relative viability ([5]; first compound 0.4 µM)	relative viability ([5]; first compound 1.265 µM)	relative viability ([5]; first compound 4 µM)
201T	0.738	0.709	0.804	0.893	0.533	0.593	0.522	0.612	1.04	1.04	1.06	1.14	1.2	1.19	1.09	1.21	1.21	1.19	1.26	1.31
A-427	0.952	0.595	0.785	0.497	0.724	–	0.858	0.335	1.06	–	1.24	0.573	1.1	–	1.13	0.869	1.05	–	0.943	0.566
ABC-1	–	–	–	–	0.632	0.505	0.321	0.391	1.19	0.848	0.58	0.884	1.07	0.83	0.457	0.367	–	–	–	–
BEN	1.14	0.856	1.02	0.968	0.382	–	0.295	0.233	0.691	0.637	0.589	0.445	0.858	–	0.657	0.467	0.0617	0.0687	0.059	0.0431
CAL-12T	0.444	0.3	0.394	0.284	0.569	0.32	0.183	0.198	0.776	0.62	0.533	0.464	1.12	1.02	1.06	0.478	1.39	1.16	1.19	0.387
COR-L23	0.737	0.369	0.497	0.456	0.535	0.404	0.426	0.408	1.15	0.792	0.92	0.457	1.09	0.794	0.951	1.16	1.1	0.982	1.06	0.968
COR-L 105	0.491	0.434	0.401	0.478	0.357	0.345	0.34	0.264	0.338	0.312	0.311	0.349	1.44	0.881	0.791	0.562	0.999	0.691	0.71	0.563
ChaGo-K-1	0.938	0.704	0.821	0.907	0.586	0.464	0.566	0.463	–	–	–	–	0.99	0.731	0.876	0.971	1.45	0.917	0.84	0.574
EKVX	0.385	–	0.269	0.47	0.6	0.394	0.478	0.373	0.236	0.192	0.157	0.144	0.783	0.435	0.408	0.411	0.874	0.648	0.681	0.681
EMC-BAC-2	0.977	0.845	0.684	0.698	0.34	0.301	0.283	0.287	0.963	0.884	0.66	0.586	1.04	0.861	0.577	0.411	1.24	1.03	1.14	1.09
EPLC-272H	0.319	–	0.214	0.279	0.372	–	0.255	0.224	1.09	–	0.666	0.122	0.687	–	0.321	0.219	1.09	–	0.747	0.807
H3255	0.651	0.604	0.527	0.565	0.364	0.34	0.298	0.349	0.239	0.227	0.204	0.169	1.02	0.549	0.746	0.97	0.593	0.294	0.347	0.208
HARA	0.97	0.594	0.419	0.487	0.254	0.246	0.253	0.272	0.901	0.696	0.608	0.592	0.87	0.627	0.473	0.734	1.16	0.88	0.944	0.984
HCC-15	0.407	0.343	0.275	0.286	0.669	0.53	0.396	0.32	0.91	0.52	0.676	0.321	1.03	0.86	0.772	0.761	0.745	0.556	0.548	0.438
HCC-44	1.15	0.906	1.02	1.07	–	–	–	–	0.968	0.916	1.02	0.699	–	–	–	–	0.926	0.874	0.892	0.928
HCC-78	0.794	0.615	0.537	0.656	0.51	0.286	0.309	0.323	1.15	0.511	0.187	0.322	0.503	0.523	0.457	0.621	0.892	0.672	0.757	0.65
HCC-366	0.354	0.337	0.318	0.255	0.57	0.48	0.525	0.379	1.2	–	0.784	0.12	1	0.877	0.78	1.02	1.15	–	0.921	0.82
HCC-827	0.604	–	0.406	0.422	0.342	–	0.259	0.274	0.197	–	0.193	0.135	1.09	–	1.06	1.2	1.11	–	1.09	1.19
HOP-62	0.408	–	0.388	0.549	0.683	–	0.639	0.567	1.07	–	0.878	0.229	1.1	–	1.18	1.14	0.996	–	0.961	0.849

Cell Line	relative viability ([1]; first compound 0.04 µM)	relative viability ([1]; first compound 0.4 µM)	relative viability ([1]; first compound 1.265 µM)	relative viability ([1]; first compound 4 µM)	relative viability ([2]; first compound 0.04 µM)	relative viability ([2]; first compound 0.4 µM)	relative viability ([2]; first compound 1.265 µM)	relative viability ([2]; first compound 4 µM)	relative viability ([3]; first compound 0.04 µM)	relative viability ([3]; first compound 0.4 µM)	relative viability ([3]; first compound 1.265 µM)	relative viability ([3]; first compound 4 µM)	relative viability ([4]; first compound 0.04 µM)	relative viability ([4]; first compound 0.4 µM)	relative viability ([4]; first compound 1.265 µM)	relative viability ([4]; first compound 4 µM)	relative viability ([5]; first compound 0.04 µM)	relative viability ([5]; first compound 0.4 µM)	relative viability ([5]; first compound 1.265 µM)	relative viability ([5]; first compound 4 µM)
IA-LM	–	–	–	–	–	–	–	–	1.1	0.615	0.967	0.203	1.1	0.886	1.14	0.716	1.08	0.665	0.968	0.623
LC-2-ad	0.987	0.813	0.892	0.772	0.915	0.482	0.384	0.276	1.06	0.855	0.951	0.233	1.14	0.891	0.898	0.827	0.462	0.383	0.392	0.261
LCLC-97TM1	0.217	–	0.156	0.145	0.976	–	0.916	0.767	0.999	–	1.04	0.192	0.905	–	0.809	0.861	0.504	–	0.484	0.279
LCLC-103H	0.689	0.71	0.648	0.636	0.449	0.414	0.419	0.279	–	–	–	–	0.828	0.74	0.632	0.625	–	–	–	–
LK-2	0.674	–	0.678	0.702	0.328	–	0.309	0.321	1.12	0.928	0.867	0.718	1.07	–	1.08	0.818	0.854	0.696	0.732	0.576
LOU-NH91	0.786	0.771	0.722	0.731	0.585	0.475	0.46	0.383	0.747	0.649	0.548	0.516	0.948	0.786	0.859	0.827	0.852	0.596	0.549	0.464
LU99A	0.5	0.549	0.38	0.461	0.478	0.46	0.369	0.434	1.04	1.03	0.613	0.588	0.823	0.833	0.844	0.738	0.911	0.735	0.622	0.546
LXF-289	0.666	–	0.752	0.836	0.181	–	0.346	0.363	0.931	–	0.999	1	0.983	–	1.04	1.05	0.917	–	1.01	1
NCI-H23	0.439	0.323	0.365	0.36	0.793	–	0.652	0.581	1.45	–	0.73	0.355	0.97	–	0.65	0.735	0.957	–	0.732	0.728
NCI-H322M	0.61	0.5	0.47	0.553	0.243	0.294	0.282	0.294	0.668	0.549	0.42	0.387	1.01	0.836	0.623	0.544	1.23	0.932	0.799	0.479
NCI-H358	0.163	0.127	0.145	0.143	0.176	0.312	0.14	0.155	0.448	0.57	0.507	0.35	0.876	0.573	0.653	0.474	–	–	–	–
NCI-H441	0.562	–	0.313	0.231	0.651	–	0.532	0.333	–	–	–	–	0.871	–	0.67	0.277	0.463	–	0.509	0.385
NCI-H650	1.01	0.567	0.666	1.21	0.479	0.373	0.375	0.285	1.13	0.722	0.525	0.272	1.07	0.699	0.884	0.777	–	–	–	–
NCI-H661	0.645	0.605	0.667	0.615	1.13	0.723	0.607	0.569	0.522	–	0.477	0.661	1.1	1.01	0.892	0.884	–	–	–	–
NCI-H1563	–	–	–	–	0.493	0.486	–	0.431	1.13	0.925	0.909	0.877	0.96	0.952	0.879	0.974	–	–	–	–
NCI-H1703	–	–	–	–	–	–	–	–	1.27	0.868	1.01	0.892	0.348	0.375	0.359	0.415	1.44	1.01	1.15	0.807
NCI-H1792	0.407	0.478	0.432	0.562	0.869	0.806	0.824	0.921	0.886	0.711	0.874	0.608	–	–	–	–	0.651	0.512	0.573	0.414
NCI-H2342	0.909	–	0.781	0.811	0.33	0.295	0.271	0.298	–	–	–	–	1.19	0.981	0.889	1.14	–	–	–	–
SW 900	0.929	0.624	0.647	0.492	0.82	0.316	0.614	0.398	–	–	–	–	1.05	0.477	0.817	0.424	–	–	–	–
